Source: patent US12570655B2, “Cysteine covalent modifiers of AKT1 and uses thereof” (Terremoto Biosciences, Inc., priority 2023, dated 2026)

What was measured:
Format in all cases: cell-based
[1] = target: T1, AKT2 (Homo sapiens, UniProt P31751); test: Live cell AKT2 target engagement by NanoBRET competitive probe displacement; details: HEK293 cells transfected with kinase-NanoLuciferase fusion, 2 h at 37° C.
T1 construct: expressed in transfected cells; host or cells: HEK293
In short: (§1)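 IC50 fitted (Hill, log inhibitor vs response) to BRET signal, E600/E460 ratio, measured with extracellular NanoLuc inhibitor present. Intact transfected HEK293 cells bearing NanoLuc-tagged kinase were co-incubated 2 h, 37 °C, with compound dilution series and ~EC50 ATP-competitive fluorescent tracer.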

[2] = target: T2, AKT1 WT (Homo sapiens, UniProt P31749); test: Live cell AKT1 WT target engagement by NanoBRET competitive probe displacement; details: HEK293 cells transfected with kinase-NanoLuciferase fusion, 2 h at 37° C.
T2 construct: expressed in transfected cells; host or cells: HEK293
In short: as §1

[3] = tested on: LAPC4 prostate cancer cells; test: Antiproliferative effects in LAPC4 cells (CellTiter Glo); details: Homo sapiens, LAPC4, 72 h, LAPC4 cells (AKT1 E17K allele), read-out: LAPC4 proliferation IC50
In short: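 Growth inhibition was measured by CellTiter Glo ATP luminescence after 72 h compound exposure of 1,000 seeded cells/well. The cells were AKT1 E17K-expressing LAPC4 prostate cancer cells maintained in IMDM plus 12% FBS. IC50 values came from Hill-equation fits.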

[4] = target: T3, AKT1 E17K (Homo sapiens, UniProt P31749, E17K); test: Live cell AKT1 E17K target engagement by NanoBRET competitive probe displacement; details: HEK293 cells transfected with kinase-NanoLuciferase fusion, 2 h at 37° C.
T3 construct: expressed in transfected cells; host or cells: HEK293
In short: as §1

T1 sequence (P31751 whole entry, the tested form may be a part): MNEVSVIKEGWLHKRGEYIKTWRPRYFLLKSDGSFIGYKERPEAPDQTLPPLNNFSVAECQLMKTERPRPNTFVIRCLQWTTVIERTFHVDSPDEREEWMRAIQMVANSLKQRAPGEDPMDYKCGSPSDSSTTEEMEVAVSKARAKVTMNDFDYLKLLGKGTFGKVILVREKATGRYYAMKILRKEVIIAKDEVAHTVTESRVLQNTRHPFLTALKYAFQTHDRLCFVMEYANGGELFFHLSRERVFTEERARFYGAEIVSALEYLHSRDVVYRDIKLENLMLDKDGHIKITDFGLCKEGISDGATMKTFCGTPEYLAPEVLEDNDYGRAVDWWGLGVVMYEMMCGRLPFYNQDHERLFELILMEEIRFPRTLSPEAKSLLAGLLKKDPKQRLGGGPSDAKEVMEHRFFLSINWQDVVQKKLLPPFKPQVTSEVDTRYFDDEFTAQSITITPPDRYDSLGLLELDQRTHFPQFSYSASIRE
T2 sequence (P31749 whole entry, the tested form may be a part): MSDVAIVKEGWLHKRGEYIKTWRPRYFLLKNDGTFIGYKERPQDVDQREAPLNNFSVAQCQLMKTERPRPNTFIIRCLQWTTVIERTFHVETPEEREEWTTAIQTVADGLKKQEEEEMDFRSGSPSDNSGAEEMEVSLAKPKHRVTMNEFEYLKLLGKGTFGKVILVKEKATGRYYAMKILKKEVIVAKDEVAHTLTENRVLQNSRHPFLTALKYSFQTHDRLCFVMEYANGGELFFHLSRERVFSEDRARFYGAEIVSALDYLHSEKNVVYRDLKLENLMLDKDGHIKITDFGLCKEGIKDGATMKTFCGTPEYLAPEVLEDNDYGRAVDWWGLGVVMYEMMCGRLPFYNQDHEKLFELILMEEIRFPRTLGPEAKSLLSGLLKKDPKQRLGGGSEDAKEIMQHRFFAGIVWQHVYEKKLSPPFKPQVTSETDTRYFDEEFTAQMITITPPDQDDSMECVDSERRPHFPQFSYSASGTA
T3 sequence (P31749 whole entry E17K, the tested form may be a part): as the sequence (P31749 whole entry, the tested form may be a part) above, with E17K counted along it

Compound | IC50 [1] [nM] | IC50 [2] [nM] | IC50 [3] [nM] | IC50 [4] [nM]
C=CC(=O)Nc1ccccc1CN[C@H]1CCc2cc(-n3c(-c4cccnc4N)nc4ccc(-n5cccn5)nc43)ccc21 [Example 39, N-[2-({[(1S)-5-[2-(2-aminopyridin-3-yl)-5-(pyrazol-1-yl)imidazo[4,5-b]pyridin-3-yl]-2,3-dihydro-1H-inden-1-yl]amino}methyl)phenyl]prop-2-enamide] | 94.8 | 64.2 | 1600 | 94.9
C=CC(=O)N1CCCc2cccc(C(=O)N[C@H]3CCc4cc(-n5c(-c6cccnc6N)nc6ccc(-n7cccn7)nc65)ccc43)c21 [Example 40, N-[(1S)-5-[2-(2-aminopyridin-3-yl)-5-(pyrazol-1-yl)imidazo[4,5-b]pyridin-3-yl]-2,3-dihydro-1H-inden-1-yl]-1-(prop-2-enoyl)-3,4-dihydro-2H-quinoline-8-carboxamide] | 265 | 48.1 | 948 | 94
C=CC(=O)Nc1cnccc1C(=O)N[C@H]1CCc2cc(-n3c(-c4cccnc4N)nc4ccc(-n5cccn5)nc43)ccc21 [Example 41, N-[(1S)-5-[2-(2-aminopyridin-3-yl)-5-(pyrazol-1-yl)imidazo[4,5-b]pyridin-3-yl]-2,3-dihydro-1H-inden-1-yl]-3-(prop-2-enamido)pyridine-4-carboxamide] | 5060 | 305 | 9840 | > 1000
C=C1CCN(c2ccccc2C(=O)N[C@H]2CCc3cc(-n4c(-c5cccnc5N)nc5ccc(-n6cccn6)nc54)ccc32)C1=O [Example 42, (S)-N-(5-(2-(2-aminopyridin-3-yl)-5-(1H-pyrazol-1-yl)-3H-imidazo[4,5-b]pyridin-3-yl)-2,3-dihydro-1H-inden-1-yl)-2-(3-methylene-2-oxopyrrolidin-1-yl)benzamide] | 252 | 289 | 3650 | 897
C=CC(=O)Nc1cc(C(F)F)ccc1C(=O)N[C@H]1CCc2cc(-n3c(-c4cccnc4N)nc4ccc(-n5cccn5)nc43)ccc21 [Example 43, (S)-2-acrylamido-N-(5-(2-(2-aminopyridin-3-yl)-5-(1H-pyrazol-1-yl)-3H-imidazo[4,5-b]pyridin-3-yl)-2,3-dihydro-1H-inden-1-yl)-4-(difluoromethyl)benzamide] | > 10000 | 317 | > 10000 | > 1000
C=CC(=O)Nc1c(F)cccc1C(=O)N[C@H]1CCc2cc(-n3c(-c4cccnc4N)nc4ccc(-n5cccn5)nc43)ccc21 [Example 44, N-[(1S)-5-[2-(2-aminopyridin-3-yl)-5-(pyrazol-1-yl)imidazo[4,5-b]pyridin-3-yl]-2,3-dihydro-1H-inden-1-yl]-3-fluoro-2-(prop-2-enamido)benzamide] | 103 | 34.5 | 122 | 49
NC(=O)/C=C/c1ncccc1C(=O)N[C@H]1CCc2cc(-n3c(-c4cccnc4N)nc4ccc(-n5cccn5)nc43)ccc21 [Example 45, N-[(1S)-5-[2-(2-aminopyridin-3-yl)-5-(pyrazol-1-yl)imidazo[4,5-b]pyridin-3-yl]-2,3-dihydro-1H-inden-1-yl]-2-[(1E)-2-carbamoyleth-1-en-1-yl]pyridine-3-carboxamide] | 717 | 43 | 296 | 68.4
C=CC(=O)N1CCC(N[C@H]2CCc3cc(-n4c(-c5cccnc5N)nc5ccc(-n6ccc(F)n6)nc54)ccc32)CC1 [Example 49, (S)-1-(4-((5-(2-(2-aminopyridin-3-yl)-5-(3-fluoro-1H-pyrazol-1-yl)-3H-imidazo[4,5-b]pyridin-3-yl)-2,3-dihydro-1H-inden-1-yl)amino)piperidin-1-yl)prop-2-en-1-one] | 980 | 50.9 | 406 | 146
C=CC(=O)N1CCC(N[C@H]2CCc3cc(-n4c(-c5cccnc5N)nc5ccc(C)nc54)ccc32)CC1 [Example 50, (S)-1-(4-((5-(2-(2-aminopyridin-3-yl)-5-methyl-3H-imidazo[4,5-b]pyridin-3-yl)-2,3-dihydro-1H-inden-1-yl)amino)piperidin-1-yl)prop-2-en-1-one] | 348 | 17.6 | 161 | 95.1
N#CN1CCC(N[C@H]2CCc3cc(-n4c(-c5cccnc5N)nc5ccc(-n6cccn6)nc54)ccc32)CC1 [Example 51, 4-{[(1S)-5-[2-(2-aminopyridin-3-yl)-5-(pyrazol-1-yl)imidazo[4,5-b]pyridin-3-yl]-2,3-dihydro-1H-inden-1-yl]amino}piperidine-1-carbonitrile] | 5560 | 115 | 1460 | 727
C=CC(=O)N(C)CC(=O)N[C@H]1CCc2cc(-n3c(-c4cccnc4N)nc4ccc(-n5cccn5)nc43)ccc21 [Example 52, (S)-N-(2-((5-(2-(2-aminopyridin-3-yl)-5-(1H-pyrazol-1-yl)-3H-imidazo[4,5-b]pyridin-3-yl)-2,3-dihydro-1H-inden-1-yl)amino)-2-oxoethyl)-N-methylacrylamide] | 3480 | 174 | 911 | 949
C=CS(=O)(=O)N1CCC(N[C@H]2CCc3cc(-n4c(-c5cccnc5N)nc5ccc(-n6cccn6)nc54)ccc32)CC1 [Example 61, 3-{3-[(1S)-1-{[1-(ethenesulfonyl)piperidin-4-yl]amino}-2,3-dihydro-1H-inden-5-yl]-5-(pyrazol-1-yl)imidazo[4,5-b]pyridin-2-yl}pyridin-2-amine] | 52.4 | 19 | 72.4 | 28.6
C=CC(=O)N1CCC(N(C)[C@H]2CCc3cc(-n4c(-c5cccnc5N)nc5ccc(-n6cccn6)nc54)ccc32)CC1 [Example 67, (S)-1-(4-((5-(2-(2-aminopyridin-3-yl)-5-(1H-pyrazol-1-yl)-3H-imidazo[4,5-b]pyridin-3-yl)-2,3-dihydro-1H-inden-1-yl)(methyl)amino)piperidin-1-yl)prop-2-en-1-one] | 107 | 21.8 | 287 | 87.9
C=CC(=O)N1CCC(CN[C@H]2CCc3cc(-n4c(-c5cccnc5N)nc5ccc(-n6cccn6)nc54)ccc32)CC1 [Example 68, 1-[4-({[(1S)-5-[2-(2-aminopyridin-3-yl)-5-(pyrazol-1-yl)imidazo[4,5-b]pyridin-3-yl]-2,3-dihydro-1H-inden-1-yl]amino}methyl)piperidin-1-yl]prop-2-en-1-one] | 74.2 | 9.84 | 75.6 | 21.9
CC#CC(=O)N1CCC(N[C@H]2CCc3cc(-n4c(-c5cccnc5N)nc5ccc(-n6cccn6)nc54)ccc32)CC1 [Example 69, 1-(4-{[(1S)-5-[2-(2-aminopyridin-3-yl)-5-(pyrazol-1-yl)imidazo[4,5-b]pyridin-3-yl]-2,3-dihydro-1H-inden-1-yl]amino}piperidin-1-yl)but-2-yn-1-one] | 226 | 25.3 | 358 | 57.7
C=CC(=O)Nc1cc(O)ccc1C(=O)N[C@H]1CCc2cc(-n3c(-c4cccnc4N)nc4ccc(-n5cccn5)nc43)ccc21 [Example 70, N-[(1S)-5-[2-(2-aminopyridin-3-yl)-5-(pyrazol-1-yl)imidazo[4,5-b]pyridin-3-yl]-2,3-dihydro-1H-inden-1-yl]-4-hydroxy-2-(prop-2-enamido)benzamide] | 1340 | 83.7 | 1040 | 288
C=CC(=O)NCc1ccccc1C(=O)N[C@H]1CCc2cc(-n3c(-c4cccnc4N)nc4ccc(-n5cccn5)nc43)ccc21 [Example 71, N-[(1S)-5-[2-(2-aminopyridin-3-yl)-5-(pyrazol-1-yl)imidazo[4,5-b]pyridin-3-yl]-2,3-dihydro-1H-inden-1-yl]-2-(prop-2-enamidomethyl)benzamide] | 31.8 | 11.5 | 29.8 | 9.43
C=CC(=O)N1CCC(N(CCOC)[C@H]2CCc3cc(-n4c(-c5cccnc5N)nc5ccc(-n6cccn6)nc54)ccc32)CC1 [Example 74, 1-(4-{[(1S)-5-[2-(2-aminopyridin-3-yl)-5-(pyrazol-1-yl)imidazo[4,5-b]pyridin-3-yl]-2,3-dihydro-1H-inden-1-yl](2-methoxyethyl)amino}piperidin-1-yl)prop-2-en-1-one] | 2940 | 179 | 1630 | > 1000
C=CC(=O)N1CCC(N[C@@H]2c3ccc(-n4c(-c5cccnc5N)nc5ccc(-n6cccn6)nc54)cc3C[C@H]2F)CC1 [Example 75, 1-(4-(((1R,2R)-5-(2-(2-aminopyridin-3-yl)-5-(1H-pyrazol-1-yl)-3H-imidazo[4,5-b]pyridin-3-yl)-2-fluoro-2,3-dihydro-1H-inden-1-yl)amino)piperidin-1-yl)prop-2-en-1-one] | 511 | 20 | 287 | 35.9
C=CC(=O)N1CCC(N[C@@H]2c3ccc(-n4c(-c5cccnc5N)nc5ccc(-n6cccn6)nc54)cc3C[C@@H]2F)CC1 [Example 76, 1-(4-(((1R,2S)-5-(2-(2-aminopyridin-3-yl)-5-(1H-pyrazol-1-yl)-3H-imidazo[4,5-b]pyridin-3-yl)-2-fluoro-2,3-dihydro-1H-inden-1-yl)amino)piperidin-1-yl)prop-2-en-1-one] | 232 | 23.3 | 369 | 60.1
